Measured values as given in patent US8618153B2, “Hepatitis C virus inhibitors” (Bristol-Myers Squibb Company, priority 2009, dated 2013).

What follows are compounds tested on HCV 1b genotype (assay: HCV Replicon assay (HCV-neo replicon cells), 1b genotype). Conditions: Hepatitis C virus; HCV 1b genotype replicon; numeric value; read-out: 1b EC50 (in μM or range).
Assay type: cell-based
Method: An HCV Replicon assay was utilized in the present disclosure, and was prepared, conducted and validated as described in commonly owned PCT/US2006/022197 and in O'Boyle et al., Antimicrob. Agents Chemother., 49(4):1346-1353 (April 2005). Assay methods incorporating luciferase reporters have also been used as described (Apath.com).
HCV-neo replicon cells and replicon cells containing mutations in the NS5A region were used to test the currently described family of compounds. The compounds were determined to have more than 10-fold less inhibitory activity on cells containing mutations than wild-type cells. Thus, the compounds of the present disclosure can be effective in inhibiting the function of the HCV NS5A protein and are understood to be as effective in combinations as previously described in application PCT/US2006/022197 and commonly owned WO 04/014852. Further, the compounds of the present disclosure can be effective against the HCV 1b genotype. It should also be understood that the compounds of the present disclosure can inhibit multiple genotypes of HCV. […] In one embodiment compounds of the present disclosure are inhibitory versus 1a, 1b, 2a, 2b, 3a, 4a, and 5a genotypes. […] The compounds of the present disclosure may inhibit HCV by mechanisms in addition to or other than NS5A inhibition. In one embodiment the compounds of the present disclosure inhibit HCV replicon and in another embodiment the compounds of the present disclosure inhibit NS5A.

Structure (SMILES)	EC50 [nM]
COC(=O)N[C@H](C(=O)N1CCC[C@H]1c1ncc(-c2ccc(-c3ccc(-c4cnc([C@@H]5CCCN5C(=O)[C@@H](NC(=O)OC)C(C)C)[nH]4)s3)s2)[nH]1)C(C)C [Example 6, Methyl ((1S)-1-(((2S)-2-(4-(5′-(2-((2S)-1-((2S)-2-((methoxycarbonyl)amino)-3-methylbutanoyl)-2-pyrrolidinyl)-1H-imidazol-4-yl)-2,2′-bithiophen-5-yl)-1H-imidazol-2-yl)-1-pyrrolidinyl)carbonyl)-2-methylpropyl)carbamate]	0.003
COC(=O)N[C@@H](C(=O)N1CCC[C@H]1c1ncc(-c2ncc(-c3cnc(-c4cnc([C@@H]5CCCN5C(=O)[C@H](NC(=O)OC)C(C)C)[nH]4)s3)s2)[nH]1)C(C)C [Example 11, Methyl ((1R)-1-(((2S)-2-(4-(2′-(2-((2S)-1-((2R)-2-((methoxycarbonyl)amino)-3-methylbutanoyl)-2-pyrrolidinyl)-1H-imidazol-4-yl)-5,5′-bi-1,3-thiazol-2-yl)-1H-imidazol-2-yl)-1-pyrrolidinyl)carbonyl)-2-methylpropyl)carbamate]	5860
COCC[C@H](NC(=O)OC)C(=O)N1CCC[C@H]1c1ncc(-c2cnc(-c3ncc(-c4cnc([C@@H]5CCCN5C(=O)[C@H](CCOC)NC(=O)OC)[nH]4)s3)s2)[nH]1 [Example 15, Methyl ((1S)-3-methoxy-1-(((2S)-2-(4-(5′-(2-((2S)-1-(N-(methoxycarbonyl)-O-methyl-L-homoseryl)-2-pyrrolidinyl)-1H-imidazol-4-yl)-2,2′-bi-1,3-thiazol-5-yl)-1H-imidazol-2-yl)-1-pyrrolidinyl)carbonyl)propyl)carbamate]	2.38

Same assay, conditions: Hepatitis C virus; HCV 1b genotype replicon; value given as range class; read-out: 1b EC50 (in μM or range)

Structure (SMILES)	EC50 [nM]
COC(=O)N[C@@H](C)C(=O)N1CCC[C@H]1c1ncc(-c2ccc(-c3ccc(-c4cnc([C@@H]5CCCN5C(=O)[C@H](C)NC(=O)OC)[nH]4)s3)s2)[nH]1 [Example 1, Methyl ((1S)-2-((2S)-2-(4-(5′-(2-((2S)-1-(N-(methoxycarbonyl)-L-alanyl)-2-pyrrolidinyl)-1H-imidazol-4-yl)-2,2′-bithiophen-5-yl)-1H-imidazol-2-yl)-1-pyrrolidinyl)-1-methyl-2-oxoethyl)carbamate]	< 1
COCC[C@H](NC(=O)OC)C(=O)N1CCC[C@H]1c1ncc(-c2ccc(-c3ccc(-c4cnc([C@@H]5CCCN5C(=O)[C@H](CCOC)NC(=O)OC)[nH]4)s3)s2)[nH]1 [Example 2, Methyl ((1S)-3-methoxy-1-(((2S)-2-(4-(5′-(2-((2S)-1-(N-(methoxycarbonyl)-O-methyl-L-homoseryl)-2-pyrrolidinyl)-1H-imidazol-4-yl)-2,2′-bithiophen-5-yl)-1H-imidazol-2-yl)-1-pyrrolidinyl)carbonyl)propyl)carbamate]	< 1
COC(=O)N[C@@H](C(=O)N1CCC[C@H]1c1ncc(-c2ccc(-c3ccc(-c4cnc([C@@H]5CCCN5C(=O)[C@H](NC(=O)OC)C(C)C)[nH]4)s3)s2)[nH]1)C(C)C [Example 3, Methyl ((1R)-1-(((2S)-2-(4-(5′-(2-((2S)-1-((2R)-2-((methoxycarbonyl)amino)-3-methylbutanoyl)-2-pyrrolidinyl)-1H-imidazol-4-yl)-2,2′-bithiophen-5-yl)-1H-imidazol-2-yl)-1-pyrrolidinyl)carbonyl)-2-methylpropyl)carbamate]	10 to 10000
COC(=O)N[C@@H](C(=O)N1CCC[C@H]1c1ncc(-c2ccc(-c3ccc(-c4cnc([C@@H]5CCCN5C(=O)[C@H](NC(=O)OC)c5ccccc5)[nH]4)s3)s2)[nH]1)c1ccccc1 [Example 4, Dimethyl (2,2′-bithiene-5,5′-diylbis(1H-imidazole-4,2-diyl(2S)-2,1-pyrrolidinediyl((1R)-2-oxo-1-phenyl-2,1-ethanediyl)))biscarbamate]	< 1
CN(C)[C@@H](C(=O)N1CCC[C@H]1c1ncc(-c2ccc(-c3ccc(-c4cnc([C@@H]5CCCN5C(=O)[C@@H](c5ccccc5)N(C)C)[nH]4)s3)s2)[nH]1)c1ccccc1 [Example 5, (1R′,1′R)-2,2′-(2,2′-Bithiene-5,5′-diylbis(1H-imidazole-4,2-diyl(2S)-2,1-pyrrolidinediyl))bis(N,N-dimethyl-2-oxo-1-phenylethanamine)]	< 1
COC(=O)N[C@H](C(=O)N1CCC[C@H]1c1ncc(-c2ccc(-c3ccc(-c4cnc([C@@H]5CCCN5C(=O)[C@@H](NC(=O)OC)C5CC5)[nH]4)s3)s2)[nH]1)C1CC1 [Example 7, Dimethyl (2,2′-bithiene-5,5′-diylbis(1H-imidazole-4,2-diyl(2S)-2,1-pyrrolidinediyl((1S)-1-cyclopropyl-2-oxo-2,1-ethanediyl)))biscarbamate]	< 1
CN(C)[C@@H](C(=O)N1CCC[C@H]1c1ncc(-c2ncc(-c3cnc(-c4cnc([C@@H]5CCCN5C(=O)[C@@H](c5ccccc5)N(C)C)[nH]4)s3)s2)[nH]1)c1ccccc1 [Example 8, (1R,1′R)-2,2′-(5,5′-Bi-1,3-thiazole-2,2′-diylbis(1H-imidazole-4,2-diyl(2S)-2,1-pyrrolidinediyl))bis(N,N-dimethyl-2-oxo-1-phenylethanamine)]	< 1
COC(=O)N[C@@H](C(=O)N1CCC[C@H]1c1ncc(-c2ncc(-c3cnc(-c4cnc([C@@H]5CCCN5C(=O)[C@H](NC(=O)OC)c5ccccc5)[nH]4)s3)s2)[nH]1)c1ccccc1 [Example 9, Dimethyl (5,5′-bi-1,3-thiazole-2,2′-diylbis(1H-imidazole-4,2-diyl(2S)-2,1-pyrrolidinediyl((1R)-2-oxo-1-phenyl-2,1-ethanediyl)))biscarbamate]	< 1
COC(=O)N[C@H](C(=O)N1CCC[C@H]1c1ncc(-c2ncc(-c3cnc(-c4cnc([C@@H]5CCCN5C(=O)[C@@H](NC(=O)OC)C(C)C)[nH]4)s3)s2)[nH]1)C(C)C [Example 10, Methyl ((1S)-1-(((2S)-2-(4-(2′-(2-((2S)-1-((2S)-2-((methoxycarbonyl)amino)-3-methylbutanoyl)-2-pyrrolidinyl)-1H-imidazol-4-yl)-5,5′-bi-1,3-thiazol-2-yl)-1H-imidazol-2-yl)-1-pyrrolidinyl)carbonyl)-2-methylpropyl)carbamate]	1 to 10
COC(=O)N[C@H](C(=O)N1CCC[C@H]1c1ncc(-c2ncc(-c3cnc(-c4cnc([C@@H]5CCCN5C(=O)[C@@H](NC(=O)OC)[C@@H](C)OC)[nH]4)s3)s2)[nH]1)[C@@H](C)OC [Example 12, Methyl ((1S,2R)-2-methoxy-1-(((2S)-2-(4-(2′-(2-((2S)-1-(N-(methoxycarbonyl)-O-methyl-L-threonyl)-2-pyrrolidinyl)-1H-imidazol-4-yl)-5,5′-bi-1,3-thiazol-2-yl)-1H-imidazol-2-yl)-1-pyrrolidinyl)carbonyl)propyl)carbamate]	10 to 10000
COCC[C@H](NC(=O)OC)C(=O)N1CCC[C@H]1c1ncc(-c2ncc(-c3cnc(-c4cnc([C@@H]5CCCN5C(=O)[C@H](CCOC)NC(=O)OC)[nH]4)s3)s2)[nH]1 [Example 13, Methyl ((1S)-3-methoxy-1-(((2S)-2-(4-(2′-(2-((2S)-1-(N-(methoxycarbonyl)-O-methyl-L-homoseryl)-2-pyrrolidinyl)-1H-imidazol-4-yl)-5,5′-bi-1,3-thiazol-2-yl)-1H-imidazol-2-yl)-1-pyrrolidinyl)carbonyl)propyl)carbamate]	10 to 10000
COC(=O)N[C@H](C(=O)N1CCC[C@H]1c1ncc(-c2cnc(-c3ncc(-c4cnc([C@@H]5CCCN5C(=O)[C@@H](NC(=O)OC)C(C)C)[nH]4)s3)s2)[nH]1)C(C)C [Example 14, Methyl ((1S)-1-(((2S)-2-(4-(5′-(2-((2S)-1-((2S)-2-((methoxycarbonyl)amino)-3-methylbutanoyl)-2-pyrrolidinyl)-1H-imidazol-4-yl)-2,2′-bi-1,3-thiazol-5-yl)-1H-imidazol-2-yl)-1-pyrrolidinyl)carbonyl)-2-methylpropyl)carbamate]	< 1
COC(=O)N[C@@H](C(=O)N1CCC[C@H]1c1ncc(-c2cnc(-c3ncc(-c4cnc([C@@H]5CCCN5C(=O)[C@H](NC(=O)OC)c5ccccc5)[nH]4)s3)s2)[nH]1)c1ccccc1 [Example 16, Dimethyl (2,2′-bi-1,3-thiazole-5,5′-diylbis(1H-imidazole-4,2-diyl(2S)-2,1-pyrrolidinediyl((1R)-2-oxo-1-phenyl-2,1-ethanediyl)))biscarbamate]	< 1
CN(C)[C@@H](C(=O)N1CCC[C@H]1c1ncc(-c2cnc(-c3ncc(-c4cnc([C@@H]5CCCN5C(=O)[C@@H](c5ccccc5)N(C)C)[nH]4)s3)s2)[nH]1)c1ccccc1 [Example 17, (1R,1′R)-2,2′-(2,2′-Bi-1,3-thiazole-5,5′-diylbis(1H-imidazole-4,2-diyl(2S)-2,1-pyrrolidinediyl))bis(N,N-dimethyl-2-oxo-1-phenylethanamine)]	< 1
COC(=O)N[C@@H](C(=O)N1CCC[C@H]1c1ncc(-c2cnc(-c3ncc(-c4cnc([C@@H]5CCCN5C(=O)[C@H](NC(=O)OC)C(C)C)[nH]4)s3)s2)[nH]1)C(C)C [Example 18]	10 to 10000
